Measurements taken from patent US20040009464A1, “Methods for identifying compounds for inhibition of neoplastic lesions, and pharmacetical compositions containing such compounds” (priority 1998, published 2004).
Where a name gives a salt, the structure may show the parent alone. Read-outs that look alike come from different tables or passages of the source.

How the values were obtained:
[1] = Seven-day dose-range finding study in rats; format: in vivo; conditions: seven days
[2] = test system: LNCaP prostate tumor cell line; test: Histone-associated DNA fragmentation in LNCaP cells; format: cell-based; conditions: 50 μM free base, up to 4 days
Protocol: (§1) The androgen-sensitive prostate tumor cell line, LNCAP (from ATCC (Rockville, Md.)) was propagated under standard conditions using […] medium containing 5% fetal calve serum and 2 mM glutamine. Primary prostate epithelial cell cultures (PrEC) derived from normal prostate (from Clonetics Inc. (San Diego, Calif.)) were grown under the same conditions as the tumor cell line except a serum-free medium optimized for the growth of such cultures was used (Clonetics Inc). For the experiments, LNCaP or PrEC cells were seeded in 96 well plates at a density of 10,000 cells per well. After 24 hours, the cells were treated with either vehicle (0.1% DMSO) or 50 μM Compound I (freebase) solubilized in DMSO. After various drug treatment times (4, 24, 48, 72, or 99 hours) the cells were lysed and processed for measurement of histone-associated DNA as an indicator of apoptotic cell death (see, Piazza et al., Cancer Research 57: 2452-2459, 1997).
(§2) This is in marked contrast to conventional chemotherapeutics that induce apoptosis or necrosis in rapidly growing normal and neoplastic cells alike.

[3] = dog, in vivo
[4] = Single, escalating dose human safety study; format: in vivo; conditions: oral
PC-3 = test: Growth inhibition, neutral red assay, PC-3; format: cell-based, human; conditions: free base, five days
Protocol: (§3) Compound I's activity is not confined to activity against colon cancer cell lines or animal models of colon cancer. It has a broad range of anti-neoplastic effects in various neoplastic cell lines. Various types of human cancer cell lines were propagated under sterile conditions in RPMI 1640 medium with 10% fetal bovine serum, […] L-glutamine and sodium bicarbonate. To determine growth inhibitory effects of Compound I, cells were seeded in 96-well plates at a density of 1000 cells per well. Twenty-four hours after plating, the cells were dosed with various concentrations of the free base of Compound I solubilized in DMSO (final concentration 0.1%). The effect of the drug on tumor cell growth was determined using the neutral red cytotoxicity assay following five days of continuous treatment. Neutral red is a dye that is selectively taken up by viable cells by an ATP-dependent transport mechanism.

[5] = test system: PrEC primary prostate epithelial cells derived from normal prostate; test: Histone-associated DNA fragmentation in PrEC cells; format: cell-based; conditions: 50 μM, up to 4 days
Protocol: as §1, §2

MDA-MB-231 = test: Growth inhibition, neutral red assay, MDA-MB-231; format: cell-based, human; conditions: free base, five days
Protocol: as §3

[6] = test system: aberrant crypt foci (AOM-induced carcinogenesis); test: Azoxymethane-induced aberrant crypt foci (ACF) model in rats; format: in vivo, male Fisher 344 rats; conditions: for Mean ACF/colon (+SE): free base, 5 weeks
Protocol: The growth inhibition IC50 value obtained for Compound I was 0.7 μM in the SW-480 cell line. […] This established rodent model of azoxymethane (“AOM”)-induced carcinogenesis was used to assess the effects of Compound I (free base and salt) on colon cancer development in vivo. ACF are precursors to colonic tumors, and ACF inhibition is predictive of chemo-preventive efficacy.
In the rats in this experiment, ACF initiation was achieved by two consecutive weekly injections of the carcinogen. Compound I was administered one week prior to ACF initiation and for the duration of the experiment. ACFs were scored after 5 weeks of treatment. Compound I was administered orally to male Fisher 344 rats in the rat chow. Daily food consumption (mg/kg body weight) varied over the course of the study, and therefore Compound I dose was expressed a grams per kg of diet to provide a basis of comparison between doses. […] The experimental groups gained less weight than the controls, which was indicative of bloavailability. However, the weight differences were less than 10% and not considered to affect ACF formation.
The free base of Compound I inhibited ACF formation as measured by a reduction of crypts per colon. With the exception of the low dose group (only 0.5 g/kg diet), the differences between treatment and control groups were substantial, and statistically significant in the case of the 1.0 and 2.0 g/kg diet group.

28-day study in rats = format: in vivo
NCI-H322M = test: Growth inhibition, neutral red assay, NCI-H322M; format: cell-based, human; conditions: free base, five days
Protocol: as §3

[7] = rat, in vivo

## CC1=C(CC(=O)NCc2ccccc2)c2cc(F)ccc2/C1=C\c1ccncc1 [Compound I, (Z)-5-fluoro-2-methyl-(4-pyridylidene)-3-(N-benzyl)indenylacetamide hydrochloride]
[1]; 50 mg/kg/day
  toxicity findings: no observable signs of toxicity
[1]; 500 mg/kg/day
  toxicity findings: an increase in absolute and relative liver weights in female rats
[1]; 2000 mg/kg/day
  toxicity findings: labored breathing and/or abnormal respiratory sounds, decreased weights gains and food consumption in male rats, and increased liver weights in female rats
[2]
  histone-associated fragmented DNA: significant increase in fragmented DNA
[3]; 1000 mg/kg
  signs of toxicity: no signs of toxicity
[3]; 1000 mg/kg/day
  drug-related effects: At no time in either dosing phase were any obvious signs of drug-related effects observed
[4]
  side effects: no significant side effects at any dose
PC-3
  GI90 μM PC-3: 82.5 µM
[5]
  DNA fragmentation: did not affect DNA fragmentation
MDA-MB-231
  GI90 μM MDA-MB-231: 77.6 µM
[6]; 0.5 g/kg diet
  Mean ACF/colon (+SE): 149 ± 14 ACF/colon
[6]; 1 g/kg diet
  Mean ACF/colon (+SE): 111 ± 9 ACF/colon
[6]; 1.5 g/kg diet
  Mean ACF/colon (+SE): 132 ± 4 ACF/colon
[6]; 2.0 g/kg diet
  Mean ACF/colon (+SE): 107 ± 15 ACF/colon
[6]; rats, compound in chow
  body weight difference versus controls: less than 10%
28-day study in rats; 28 days, 2000 mg/kg/day
  organ weights: statistically significant increase in liver weights
28-day study in rats; 28 days, 50, 500 and 2000 mg/kg/day
  clinical observations: no abnormal clinical observations
NCI-H322M
  GI90 μM NCI-H322M: 13.2 µM
[7]; ip, 1000 mg/kg
  toxicity findings: reduced body weight gain, with mesenteric adhesions seen in some animals
[7]; po, 4000 mg/kg
  body weight gain: body weight gains were slightly reduced
